Reference: US20250205264A1, “METHODS OF USING AVERMECTIN COMPOSITIONS FOR THE TREATMENT OF SPASTICITY AND DOSING REGIMENS” (priority 2022, published 2025)

Tested on: pentylenetetrazol (PTZ)-induced ictal brain activity
Test: Modulation of PTZ-induced seizures, BOLD fMRI
Type: in vivo, male Wistar rats
Details: for PTZ-induced brain activity: positive control compounds, all tested brain regions, high statistical significance
Procedure: Functional MRI (fMRI) was performed using a high-field preclinical MRI system in anesthetized male Wistar rats in order to determine the modulation of pentylenetetrazol (PTZ)-induced ictal brain activity by chronic treatment with test compound (TC). […] Vehicle and 3 mg/kg Alprazolam served as controls (see, Table 11) Seizures were induced with PTZ in each experimental group. A schematic of the study design can be seen in FIG. 6. Various physiological parameters were also measured throughout the experiment including body weight, CO2 levels, blood pH, and heart rate. […] Vehicle and 3 mg/kg Alprazolam served as controls (see, Table 12).

CN1C(=O)CN=C(c2ccccc2)c2cc(Cl)ccc21 [Diazepam]
PTZ-induced brain activity: effectively cancelled PTZ-induced brain activity

Cc1nnc2n1-c1ccc(Cl)cc1C(c1ccccc1)=NC2 [Alprazolam]
Statistical significances of BOLD fMRI AUC, Vehicle vs. Alprazolam (brain regions) (FIG. 7A, 3 mg/kg+PTZ, two-way ANOVA): in all
PTZ-induced brain activity: effectively cancelled PTZ-induced brain activity
